These results are taken from US20060116328A1, “Combined use of carnosinase inhibitor with l-carnosines and composition” (priority 2003, published 2006).

Peptide text beside a SMILES is read from it.

One experiment concerns the target T1, tissue carnosinase (Rattus norvegicus, UniProt Q6Q0N1).
T1 construct: Partially purified tissue carnosinase as a solution in 0.1M phosphate buffer (pH 7.0) is prepared from the crude brain extracts; from tissue; host or cells: brain of male Hairless rats
T1 sequence (Q6Q0N1 1-475): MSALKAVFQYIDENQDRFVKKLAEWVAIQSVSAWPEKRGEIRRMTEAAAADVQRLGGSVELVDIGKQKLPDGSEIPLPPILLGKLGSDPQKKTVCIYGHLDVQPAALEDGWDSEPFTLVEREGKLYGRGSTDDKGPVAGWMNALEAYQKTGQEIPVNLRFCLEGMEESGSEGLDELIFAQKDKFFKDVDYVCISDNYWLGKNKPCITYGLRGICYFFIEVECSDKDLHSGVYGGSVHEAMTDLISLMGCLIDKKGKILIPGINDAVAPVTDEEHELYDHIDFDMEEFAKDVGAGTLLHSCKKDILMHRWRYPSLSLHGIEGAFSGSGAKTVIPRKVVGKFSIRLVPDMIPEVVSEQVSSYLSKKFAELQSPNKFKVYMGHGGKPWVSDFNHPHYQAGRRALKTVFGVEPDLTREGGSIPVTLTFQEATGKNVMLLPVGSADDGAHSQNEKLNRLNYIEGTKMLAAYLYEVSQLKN
The experiment is described as follows: Hydrolysis of L-carnosine and related substance with tissue carnosinase in the absence or presence of a carnosinase inhibitor. The settings on record: pH 7.0, 37° C. The experiment is classed as biochemical, male Hairless rats. As to the method: Partially purified tissue carnosinase as a solution in 0.1M phosphate buffer (pH 7.0) is prepared from the crude brain extracts of male Hairless rats by a reported procedure (Y. Courbebaisse, G. Langrand, J -F. Nicolay and M. A. Babizhayev, Proceeding of 19th IFSCC Congress, Australia, Vol. 3, 1996, p. 1-12; M. A. Babizhayev et al., Letters in Peptide Science, Vol. 5, 163, 1998). A solution of the substrate (450 μl) in 0.1M phosphate buffer (pH 7.0) is incubated with the diluted enzyme solution (50 μl) at 37° C. for 120 min. in the absence or in the presence of a carnosinase inhibitor. Portions of the reaction mixture are taken at the time points of 0, 2, 3, 4, 5, 10, 20, 40, 60 min and dansylated with dansyl chloride (5 mg of dansyl chloride/ml of acetonitrile solution) at 50° C. for 15 min. The each portion is subjected to HPLC analysis on a column C18DB using a gradient method (A=0.02N acetic acid/acetonitrile, 90/10; B=acetonitrile). The rate of the peptide hydrolysis is determined by following the decrease of the area under the curve (AUC) of the dansylated substrate.

The test system of another experiment is cells. The settings on record: L-carnosine supplementation of tissue cultures; cited from earlier work.
In a further experiment the test system is mice. The settings on record: mice supplemented with L-carnosine; cited from earlier work.
The next experiment has as its system skin. The experiment can be described thus: Cosmetic liposome composition applied on the skin of elderly volunteers. The experiment is classed as in vivo, human. The settings on record: 10 elderly subjects, applied on the skin twice daily for 15 days.
The subject of another experiment is solid tumor cell lines. The experiment can be described thus: Growth inhibition and induction of apoptosis in solid tumor cell lines. The experiment is classed as cell-based. As to the method: The experimental design, details of experimental procedure and human leukemia cell lines were essentially the same as those reported by Sekine et al. (Int. J. Cancer, Vol. 94, 485, 2001). The carnosinase inhibitor bestatine was used in the range of 5-15 μg/ml of concentration and the concentration of the applied carnosine varied from 5-20 mM . […] Our study was performed with this combination to examine whether bestatin+carnosine can also induce apoptosis in solid tumor cell lines.

Where [1] appears, read: substrate L-Carnosine 0.08 mM + inhibitor 0.5 mM.

Consider `NCC(=O)N[C@@H](Cc1cnc[nH]1)C(=O)O` [Gly-L-His] (H-Gly-His-OH), for which the rate of hydrolysis at tissue carnosinase (setting [1]) was 6e-06 mol/min.

As for `NCCC(=O)N[C@@H](Cc1c[nH]cn1)C(=O)O` [L-Carnosine, β-alanyl-L-histidine], the “increase in cellular life span” value in the experiment with cells was 67%. The rate of hydrolysis came to 7.8e-05 mol/min on tissue carnosinase (L-Carnosine 0.08 mM + L-carnosine 0.3 mM (blank test)), 3.4e-05 mol/min at tissue carnosinase (substrate L-Carnosine 0.08 mM alone (blank test)) and 7.8e-05 mol/min at tissue carnosinase (substrate L-Carnosine 0.3 mM alone (blank test)). Moreover, in the experiment with mice, the “average life span longer than non-treated mice” value is 20%. In addition, in the experiment with skin, the skin pigmentation result was “only a little whitening activity”. For the molecule `O=C(O)[C@H](Cc1cnc[nH]1)NC(=O)[C@@H]1CCCN1` [L-Pro-L-His], on tissue carnosinase (setting [1]), the rate of hydrolysis was found to be 9e-06 mol/min. On to `CC(=O)NCCC(=O)N[C@@H](Cc1cnc[nH]1)C(=O)O` [N-Acetyl-L-carnosine, N-acetyl-L-carnosine], for which the rate of hydrolysis at tissue carnosinase (substrate N-Acetyl-L-carnosine 0.08 mM alone (blank test)) amounted to 1e-06 mol/min. As to `CC(=O)NCCC(=O)O` [N-acetyl-β-alanine], the rate of hydrolysis on tissue carnosinase (setting [1]) worked out at 3e-06 mol/min; at tissue carnosinase (substrate N-Acetyl-L-carnosine 0.08 mM + inhibitor 0.5 mM), 3.5e-07 mol/min. Take `COC(=O)[C@H](CC(C)C)NC(=O)[C@@H](O)[C@H](N)Cc1ccccc1` [bestatin methyl ester]: the cell growth result with solid tumor cell lines (used with L-carnosine, compared with L-carnosine only) is given as “inhibited cell growth more clearly than the case where only L-carnosine is used”. Consider `CC(C)C[C@H](NC(=O)[C@@H](O)[C@H](N)Cc1ccccc1)C(=O)O` [bestatine, bestatin, reference compound], for which the rate of hydrolysis at tissue carnosinase (substrate L-Carnosine 0.08 mM + inhibitor 0.5 nM) came to 2e-06 mol/min. For the same molecule, in the experiment with solid tumor cell lines (bestatine 5-15 μg/ml, carnosine 5-20 mM), the “growth inhibition and induction of apoptosis” value is “neither direct growth inhibition nor induction of apoptosis”. For `NCCC(=O)O` [β-alanine], the rate of hydrolysis on tissue carnosinase (setting [1]) stood at 5e-06 mol/min; at tissue carnosinase (substrate L-Carnosine 0.3 mM + inhibitor 0.5 mM), 5.4e-05 mol/min.

For `NCCCC(=O)NCCc1c[nH]cn1` [γ-aminobutyryl-histamine, γ-aminobutyrylhistamine], the rate of hydrolysis on tissue carnosinase (setting [1]) was 4.5e-06 mol/min.
